Laboratory results: US20100160623A1, “CYCLODEXTRIN INCLUSION COMPLEXES AND METHODS OF PREPARING SAME” (CARGILL, INCORPORATED, priority 2006, published 2010)
Entries after “also recorded” stand apart in the source; their conditions may differ. Peptide text beside a SMILES is read from it.

Tests used:
[1] = approximate class bounds given as e.g.; cited from earlier work
[2] = color stability of red 40 in vitamin fortified beverage exposed to light (Examples 39-40); type: physicochemical; settings: south facing window, exposure to light
Excerpt: The mixture is returned to the original container and sealed. The sealed bottle is place in a south facing window for 5-6 weeks or until color changes are noted. Excess beverage is stored refrigerated in glass.

[3] = stabilization of citral in citric acid solution with added uncomplexed cyclodextrin (Example 20); type: physicochemical; settings: 0.1 or 0.2 wt % cyclodextrin, 40 or 90 degrees F., 18-48 hours
Procedure: Citral (natural citral, SAP No. 921565, Lot No. 10000223137, available from Citrus & Allied) was cut in ethanol and diluted in citric acid to obtain a desired flavor level (e.g., 3 mL (1% citral in EtOH) per 2 L 0.6% citric acid; designated as “control” or “control freshly made” in Table 2). […] The raw area counts of various forms of citral or character-impact citrus flavor compounds (i.e., neral, geranial, and citral total, the sum of neral and geranial), and a variety of other compounds, including common citrus flavor off-note chemicals (e.g., carveol, p-cymene or p-cymene-8-ol, p,a-dimethyl styrene, mentha-1,5-dien-8-ol 1, and mentha-a,5-dien-8-ol 2) and chlorocyclohexane internal standard (designated as “CCH int std” in Table 2) were measured for each permutation of the experiment, as shown in Table 2. As used herein, the term “raw area counts” is used to refer to the area under the curve of a corresponding portion of a gas chromatogram when the samples are analyzed using a gas chromatography-mass spectrometry analysis, namely, a PEGASUS II Time-of-flight mass spectrometer (TOF-MS; available from LECO Corp., St. Joseph, Mich.). The chlorocyclohexane internal standard was included at 10 ppm per beverage to attempt to normalize the raw area counts of the other compounds of interest.

[4] = stabilization of citral to sunlight, off-notes by SPME GC/TOF-MS (Example 40A); type: physicochemical
Excerpt: The encapsulated citral products of Example 19 were studied by exposure to summer sun for 7 days as in the above example, but with the goal of monitoring thermal and photo oxidation products using two different concentrations of cyclodextrins. […] The citral complexes were studied at two different concentrations and were designed to deliver a constant citral level when used at 0.1 wt % or 0.2 wt % in acidic beverage base consisting of 10% sucrose and 0.5% citric acid. A 0.1 wt % citral in ethanol was used as a control. 500 ml of each sample was prepared and divided into six (6) four (4) oz samples with no allowed headspace and sealed. Analysis was preformed using SPME and a LECO Pegasus III GC/TOF-MS as previously reported; samples were analyzed in triplicate using a “Latin Square” sampling protocol.

With `COC(=O)[C@H](Cc1ccccc1)NC(=O)[C@@H](N)CC(=O)O` [aspartame] (H-Asp-Phe-OMe) as the compound, how does the “log(P) value (class of guest)” value [1] read?
Its value is “less than about 1 but greater than zero”.

For `CSC` [dimethyl sulfide], which “log(P) value (class of guest)” value [1] is on record?
The value was “less than about 1 but greater than zero”.

Which “log(P) value (class of guest)” value [1] does the source give for `CCc1occc(=O)c1O` [ethyl maltol] here?
The value was “less than about 1 but greater than zero”.

For `CC1=C(O)C(=O)C(C)O1` (centres unmarked) [furaneol, 4-hydroxy-2,5-dimethyl-3(2H) furanone], which “log(P) value (class of guest)” value [1] is on record?
Its value is “less than about 1 but greater than zero”.

With `COc1cc(S(=O)(=O)[O-])c(C)cc1N=Nc1c(O)ccc2cc(S(=O)(=O)[O-])ccc12.[Na+].[Na+]` [red 40 color] as the compound, how does the “color stability (red 40)” value [2] read?
The value was “degrades upon exposure to light”.

Which “amount of off-notes formed vs control” value [3] does the source give for `OC[C@H]1O[C@@H]2O[C@H]3[C@H](O)[C@@H](O)[C@@H](O[C@H]4[C@H](O)[C@@H](O)[C@@H](O[C@H]5[C@H](O)[C@@H](O)[C@@H](O[C@H]6[C@H](O)[C@@H](O)[C@@H](O[C@H]7[C@H](O)[C@@H](O)[C@@H](O[C@H]1[C@H](O)[C@H]2O)O[C@@H]7CO)O[C@@H]6CO)O[C@@H]5CO)O[C@@H]4CO)O[C@@H]3CO` [α-cyclodextrin] here?
Its value is “off-note formation is inhibited”.

Which “amount of citral in the solution vs control” value [3] does the source give for `OC[C@H]1O[C@@H]2O[C@H]3[C@H](O)[C@@H](O)[C@@H](O[C@H]4[C@H](O)[C@@H](O)[C@@H](O[C@H]5[C@H](O)[C@@H](O)[C@@H](O[C@H]6[C@H](O)[C@@H](O)[C@@H](O[C@H]7[C@H](O)[C@@H](O)[C@@H](O[C@H]8[C@H](O)[C@@H](O)[C@@H](O[C@H]1[C@H](O)[C@H]2O)O[C@@H]8CO)O[C@@H]7CO)O[C@@H]6CO)O[C@@H]5CO)O[C@@H]4CO)O[C@@H]3CO` [β-cyclodextrin] here?
The value was “increased the amount of citral in the solution”.

What about the “amount of off-notes formed vs control” value [3] of the same compound?
The value was “off-note formation is inhibited; also recorded: decreased the amount of off-notes formed”.

With hydroxypropyl-β-cyclodextrin as the compound, how does the “color stability (red 40)” value [2] read?
The value was “superior color stability”.

What about the “color stability (red 40)” value ([2]; listed as hydroxyl propyl β-cyclodextrin) of the same compound?
Its value is “best”.

What about the “preventing flavor offnotes, compared with β-cyclodextrin” value [4] of the same compound?
The value was “less effective than β-cyclodextrin in preventing flavor offnotes”.
